Laboratory results: patent US11400063B2, “Early administration of low-dose colchicine after myocardial infarction” (INSTITUT DE CARDIOLOGIE DE MONTREAL, priority 2019, dated 2022)
Values joined by “and” are separate entries in the source; they are usually repeats but may differ in a detail not shown here. Identical values can stand only once.

Tested on: patients recruited within 30 days after a myocardial infarction
Test: COLCOT randomized double-blind trial, efficacy end points, colchicine 0.5 mg once daily vs placebo
Type: in vivo, human
Settings: for Total primary endpoint events, Rate Ratio (95% CI): Negative binomial model, marginal rate ratio; for Rate of primary endpoint events per 100 patient-months: first and recurrent events
Procedure: We performed a randomized, double-blind trial involving patients recruited within 30 days after a myocardial infarction. The patients were randomly assigned to receive either low-dose colchicine (0.5 mg once daily) or placebo. A total of 4745 patients were enrolled; 2386 patients were assigned to the colchicine group, and 2379 to the placebo group. Patients were followed for a median of 22.6 months.
The primary efficacy end point was a composite of death from cardiovascular causes, resuscitated cardiac arrest, myocardial infarction (e.g., acute myocardial infraction or type II myocardial infarction), stroke, or urgent hospitalization for angina leading to coronary revascularization. The components of the primary end point and safety were also assessed.
COLCOT was an international multicenter, randomized, double-blinded trial that randomly assigned patients to receive either low-dose colchicine (0.5 mg once daily) or placebo. The study protocol and main results have been published (see, Tardif et al., N Engl J Med 2019). […] Main exclusion criteria were severe heart failure, reduced left ventricular ejection fraction (<35%), recent stroke (<3 months), type 2 MI, recent (<3 years) or planned coronary artery bypass graft (CABG), history of cancer (<3 years), and inflammatory bowel disease or chronic diarrhea. All patients enrolled in the trial benefited from percutaneous coronary intervention whenever indicated and guidelines-directed management of CV disease prior to randomization (see. Tardif et al., N Engl J Med 2019).
Clinical follow-up consisted of evaluations at 1 and 3 months after randomization and every 3 months thereafter. An independent clinical endpoint committee, blinded to trial-group assignment, adjudicated clinical endpoints. The trial was locally approved by the various institutional review boards, and all patients signed a written informed consent before enrollment.
The primary efficacy endpoint was a composite of CV death, resuscitated cardiac arrest, MI, stroke, or urgent hospitalization for angina requiring coronary revascularization. The secondary endpoints consisted of the components of the primary efficacy endpoint, all-cause death, and a composite of CV death, resuscitated cardiac arrest, MI, or stroke. Exploratory endpoints included all coronary revascularizations, including both elective and urgent coronary revascularizations.
The primary efficacy endpoint was a composite of cardiovascular death, MI, ischemic stroke, and urgent coronary revascularization. Secondary efficacy endpoints consisted of the components of the primary endpoint, composite of cardiovascular death, MI, and ischemic stroke, as well as deep vein thrombosis or pulmonary embolus, and atrial fibrillation (AF). To maximize consistency in pooling efficacy endpoints among trials, the primary and secondary composite efficacy and stroke endpoints in COLCOT were modified to meet the definition of primary and stroke endpoints of the LoDoCo2 trial. Therefore, adjudicated events of resuscitated cardiac arrest and non-ischemic stroke in COLCOT were excluded from the pooled primary endpoint. The component endpoint of stroke was also restricted to include only ischemic strokes. Incidence rates and hazards ratios (HRs) were calculated for the new primary composite endpoint and ischemic stroke endpoint using individual patient data from COLCOT.
The COLCOT trial was performed as follows. A randomized, double-blind trial involving patients recruited within 30 days after a myocardial infarction was performed. The patients were randomly assigned to receive either low-dose colchicine (0.5 mg once daily) or placebo. A total of 4745 patients were enrolled; 2386 patients were assigned to the colchicine group, and 2379 to the placebo group. […]

[1] = COLCOT endpoint modified to LoDoCo2 definition
[2] = intention-to-treat population, listed as colchicine
[3] = intention-to-treat, colchicine vs placebo
[4] = intention-to-treat, colchicine vs placebo, listed as colchicine

COc1cc2c(c(OC)c1OC)-c1ccc(OC)c(=O)cc1[C@@H](NC(C)=O)CC2 [Colchicine, colchicine]
Total number of primary endpoint events (first and recurrent) (52949 patient-months of follow-up): 154 | Primary efficacy composite endpoint, no. of patients with event/total no. of patients (All patients): 131/2366 | Total primary endpoint events, Hazard Ratio (95% CI) (Andersen-Gill model): 0.69 (0.54; 0.88) | Primary composite outcome (cardiovascular mortality, myocardial infarction, ischemic stroke, urgent revascularization), Events % [1]: (5.5%) | Primary composite outcome (cardiovascular mortality, myocardial infarction, ischemic stroke, urgent revascularization), HR (95% CI) [1]: 0.77 (0.61-0.97) | Primary composite outcome (cardiovascular mortality, myocardial infarction, ischemic stroke, urgent revascularization), Events N (COLCOT endpoint modified to LoDoCo2 definition, N = 2366): 130 N | Ischemic stroke, Events % (COLCOT, only ischemic strokes): 0.2% | Ischemic stroke, Events N (COLCOT, only ischemic strokes): 4 N | Ischemic stroke, HR (95% CI) (COLCOT, only ischemic strokes): 0.25 (0.08-0.75) | Ischemic stroke, HR (95% CI) (COLCOT, only ischemic strokes, listed as colchicine): 0.25 | Number of patients with 0 primary endpoint events per patient (N = 2366): 2235 | Number of patients with 1 primary endpoint event per patient (N = 2366): 111 | Number of patients with 2 primary endpoint events per patient (N = 2366): 18 | Number of patients with 3 primary endpoint events per patient (N = 2366): 1 | Number of patients with 4 primary endpoint events per patient (N = 2366): 1 | Total primary endpoint events, Rate Ratio (95% CI): 0.66 (0.51; 0.86) | Total primary endpoint events, Rate Ratio (95% CI) (listed as colchicine): 0.66 | Total primary endpoint events, Hazard Ratio (95% CI) (WLW model, 1st Event): 0.77 (0.61; 0.96) | Total primary endpoint events, Hazard Ratio (95% CI) (WLW model, 2nd Event): 0.73 (0.48; 1.11) | Total primary endpoint events, Hazard Ratio (95% CI) (WLW model, 3rd Event): 0.64 (0.37; 1.10) | Total primary endpoint events, Hazard Ratio (95% CI) (WLW model, Average): 0.77 (0.61; 0.96) | Rate of primary endpoint events per 100 patient-months: 0.29 per 100 patient-months | Rate of primary endpoint events per 100 patient-months (listed as colchicine): 029 per 100 patient-months | Atrial fibrillation, number of patients (intention-to-treat population): 36 number | Atrial fibrillation, percent of patients (intention-to-treat population): (1.5) percent | Death from cardiovascular causes, number of patients (intention-to-treat population): 20 number | Death, number of patients (intention-to-treat population): 43 number | Death, percent of patients (intention-to-treat population): (1.8) percent | Deep venous thrombosis or pulmonary embolus, number of patients (intention-to-treat population): 10 number | Deep venous thrombosis or pulmonary embolus, percent of patients (intention-to-treat population): (0.4) percent | Myocardial infarction, number of patients (intention-to-treat population): 89 number | Resuscitated cardiac arrest, number of patients (intention-to-treat population): 5 number | Resuscitated cardiac arrest, percent of patients (intention-to-treat population): (0.2) percent | Secondary composite end point, percent of patients (intention-to-treat population): (4.7) percent | Stroke, number of patients (intention-to-treat population): 5 number | Stroke, percent of patients (intention-to-treat population): (0.2) percent | Urgent hospitalization for angina leading to revascularization, number of patients (intention-to-treat population): 25 number | Primary composite end point, number of patients (intention-to-treat population, N = 2366, median follow-up 22.6 months): 131 number | Primary composite end point, percent of patients [2]: 5.5% | Secondary composite end point, percent of patients [2]: 4.7% | Atrial fibrillation, Hazard Ratio (95% CI) [3]: 0.93 (0.59-1.46) | Death from cardiovascular causes, Hazard Ratio (95% CI) [3]: 0.84 (0.46-1.52) | Death, Hazard Ratio (95% CI) [3]: 0.98 (0.64-1.49) | Deep venous thrombosis or pulmonary embolus, Hazard Ratio (95% CI) [3]: 1.43 (0.54-3.75) | Myocardial infarction, Hazard Ratio (95% CI) [3]: 0.91 (0.68-1.21) | Primary composite end point, Hazard Ratio (95% CI) [3]: 0.77 (0.61-0.96) | Resuscitated cardiac arrest, Hazard Ratio (95% CI) [3]: 0.83 (0.25-2.73) | Secondary composite end point, Hazard Ratio (95% CI) [3]: 0.85 (0.66-1.10) | Stroke, Hazard Ratio (95% CI) [3]: 0.26 (0.10-0.70) | Urgent hospitalization for angina leading to revascularization, Hazard Ratio (95% CI) [3]: 0.50 (0.31-0.81) and 0.50 (0.31.-0.81) | Death from cardiovascular causes, Hazard Ratio (95% CI) [4]: 0.84 | Myocardial infarction, Hazard Ratio (95% CI) [4]: 0.91 | Primary composite end point, Hazard Ratio (95% CI) [4]: 0.77 | Resuscitated cardiac arrest, Hazard Ratio (95% CI) [4]: 0.83 | Secondary composite end point, Hazard Ratio (95% CI) [4]: 0.85 | Stroke, Hazard Ratio (95% CI) [4]: 0.26 | Urgent hospitalization for angina leading to revascularization, Hazard Ratio (95% CI) [4]: 0.50 | Secondary composite end point, number of patients (intention-to-treat, death from cardiovascular causes, resuscitated cardiac arrest, myocardial infarction, and stroke): 111 number | reduction of the risk of ischemic CV events (main COLCOT results, post-MI setting): 23% | Time to first primary endpoint, Adjusted Hazard Ratio (95% CI) (multivariable Cox regression model, colchicine vs. placebo, 4745 observations): 0.78 (0.62-0.98) | MI, % of patients (per-protocol population): (3.4%) | MI, no. of patients (per-protocol population): 77 no. | Primary endpoint, % of patients (per-protocol population): (5.1%)
